Among the test systems are SNB-19 CNS; SK-MEL-5 melanoma; U251 CNS; MDA-MB-435; LOX IMVI melanoma; RPMI-8226 leukemia; TK-10 renal; DU-145 prostate; SK-MEL-2 melanoma; MDA-MB-231 breast.
Holding throughout (test): growth of human tumour cells (NCI), 48 h

This is an account of results in PubChem BioAssay (NCI).

Each structure is given as a SMILES string. Where “and” joins values, the source holds several entries; their conditions need not be identical. Identical values can stand only once.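 48-hour exposure; five concentrations; linearly interpolated endpoints. Abbreviation: GI50, concentration required for 50% inhibition of growth. The concentration for full growth arrest is given as TGI.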 Some results are limits rather than exact numbers.

Consider `COc1ccc(OC)c(/C=C/[N+](=O)[O-])c1`, for which the TGI was 15.2 µM and 9.89 µM with SNB-19 CNS; 4.29 µM and 6.58 µM in the assay on SK-MEL-5 melanoma; 8.86 µM and 7.37 µM with U251 CNS; 7.68 µM with MDA-MB-435; 12.6 µM and 3.78 µM with LOX IMVI melanoma; 4.42 µM and 4.74 µM with RPMI-8226 leukemia. Moreover, the TGI was 4.58 µM and 10.5 µM in the assay with TK-10 renal; 8.37 µM and 10.5 µM in the assay on DU-145 prostate; 5.48 µM and 9.88 µM in the assay on SK-MEL-2 melanoma; 5.32 µM in the assay with MDA-MB-231 breast. Besides, the GI50 in the assay with SK-MEL-5 melanoma is 2.06 µM; in the assay on U251 CNS, 2.27 µM; with LOX IMVI melanoma, 1.09 µM; with RPMI-8226 leukemia, 1.74 µM; with TK-10 renal it was 1.86 µM and 5.04 µM; with DU-145 prostate it was 2.57 µM.

On to `O=C(c1ccccc1)c1ccc(-c2ccc(O)cc2)cc1`, for which the GI50 is 6.01 µM with SNB-19 CNS; 1.05 µM in the assay on SK-MEL-5 melanoma; 3.69 µM in the assay on U251 CNS; 0.328 µM in the assay on MDA-MB-435; 11.1 µM in the assay on LOX IMVI melanoma; 2.7 µM in the assay with RPMI-8226 leukemia. Moreover, the GI50 was 8.43 µM in the assay with TK-10 renal, 5.62 µM in the assay with DU-145 prostate, 6.95 µM in the assay on SK-MEL-2 melanoma and 6.08 µM in the assay on MDA-MB-231 breast. Moreover, the TGI in the assay with SNB-19 CNS was > 100 µM; in the assay on SK-MEL-5 melanoma, 11.8 µM; with U251 CNS, 20.1 µM; with MDA-MB-435, 1.55 µM; in the assay on LOX IMVI melanoma it was 28.8 µM; in the assay with RPMI-8226 leukemia it was 18.3 µM. For the same compound, the TGI in the assay on TK-10 renal came to 50.7 µM; in the assay with DU-145 prostate it was 29.4 µM; in the assay on SK-MEL-2 melanoma it was 61 µM; with MDA-MB-231 breast it was 37.6 µM.

In the case of `Cn1ncc2cc(-c3cnc(N)c(Cl)c3N3CCC4(CCNC4=O)CC3)ccc21`, the GI50 was 94.2 µM with SNB-19 CNS; 11.3 µM in the assay with SK-MEL-5 melanoma; 43.7 µM in the assay with U251 CNS; 45.4 µM in the assay on MDA-MB-435; 33.1 µM in the assay on LOX IMVI melanoma; 16 µM in the assay on RPMI-8226 leukemia. For the same compound, the GI50 in the assay on TK-10 renal is 36.1 µM; in the assay on DU-145 prostate, 52.1 µM; with SK-MEL-2 melanoma it was 39.8 µM; with MDA-MB-231 breast, 23 µM. Also, the TGI with SNB-19 CNS is > 100 µM; in the assay with SK-MEL-5 melanoma, 23.8 µM; with U251 CNS, > 100 µM; in the assay with MDA-MB-435, > 100 µM; with LOX IMVI melanoma, > 100 µM; in the assay on RPMI-8226 leukemia it was 95.5 µM. The TGI in the assay on TK-10 renal is > 100 µM; with DU-145 prostate it was > 100 µM; with SK-MEL-2 melanoma, > 100 µM; in the assay with MDA-MB-231 breast it was 86.3 µM.

For `Cn1ncc2c(Nc3ccc(Br)cc3)nc(Nc3ccc(Br)cc3)nc21`, the GI50 with SNB-19 CNS was 6.42 µM; in the assay with SK-MEL-5 melanoma, 2.2 µM; with U251 CNS it was 2.89 µM; in the assay with MDA-MB-435 it was 2.86 µM; in the assay on LOX IMVI melanoma it was 1.77 µM; in the assay on RPMI-8226 leukemia, 2.4 µM. The GI50 is 4.75 µM in the assay with TK-10 renal, 3.65 µM in the assay with DU-145 prostate, 2.89 µM in the assay on SK-MEL-2 melanoma and 1.8 µM in the assay with MDA-MB-231 breast. The TGI came to 18.9 µM in the assay with SNB-19 CNS; 7.52 µM in the assay on SK-MEL-5 melanoma; 10 µM in the assay with U251 CNS; 10.7 µM in the assay on MDA-MB-435; 3.36 µM in the assay with LOX IMVI melanoma; 8.87 µM in the assay on RPMI-8226 leukemia. Moreover, the TGI is 19 µM with TK-10 renal, 13 µM in the assay with DU-145 prostate, 8.56 µM in the assay on SK-MEL-2 melanoma and 3.68 µM with MDA-MB-231 breast.

For `CN(C(=O)c1ccc(F)cc1C(F)(F)F)C1CCN(c2nnc(-c3ccnn3C)c3ccccc23)CC1`, the GI50 in the assay on SNB-19 CNS is 51.7 µM; in the assay with SK-MEL-5 melanoma, 11.6 µM; in the assay with U251 CNS it was 59.3 µM; in the assay with MDA-MB-435 it was 26.6 µM; in the assay with LOX IMVI melanoma, 61.5 µM; in the assay on RPMI-8226 leukemia it was 19.1 µM. The GI50 in the assay on TK-10 renal is 65.6 µM; with DU-145 prostate, 75.4 µM; in the assay with SK-MEL-2 melanoma, 29.9 µM; with MDA-MB-231 breast, 37.8 µM. Further, the TGI in the assay on SNB-19 CNS is > 100 µM; in the assay with SK-MEL-5 melanoma, 30 µM; in the assay with U251 CNS, > 100 µM; in the assay with MDA-MB-435, > 100 µM; with LOX IMVI melanoma, > 100 µM; in the assay with RPMI-8226 leukemia it was > 100 µM. In addition, the TGI with TK-10 renal, in the assay with DU-145 prostate, in the assay with SK-MEL-2 melanoma and in the assay on MDA-MB-231 breast was > 100 µM each time.

Take `COC1=CC(c2ccc[nH]2)=N/C1=C\c1[nH]c(C)c(C(=O)CCC(=O)Oc2ccc3c(c2)CCC2C3CC[C@]3(C)C(=O)CC[C@@H]23)c1C` (stereo partly specified): the GI50 in the assay on SNB-19 CNS is 17.7 µM; with SK-MEL-5 melanoma, 3.48 µM; in the assay on U251 CNS, 3.31 µM; with MDA-MB-435 it was 7.7 µM; with LOX IMVI melanoma it was 0.998 µM; in the assay on RPMI-8226 leukemia, 5.85 µM. Besides, the GI50 with TK-10 renal was 25.2 µM; with DU-145 prostate, 1.58 µM; in the assay with SK-MEL-2 melanoma, 15.6 µM; in the assay with MDA-MB-231 breast it was 0.276 µM. Besides, the TGI is > 100 µM in the assay on SNB-19 CNS; 19.6 µM in the assay with SK-MEL-5 melanoma; > 86.7 µM in the assay with U251 CNS; > 100 µM in the assay with MDA-MB-435; 3.35 µM with LOX IMVI melanoma; > 100 µM in the assay on RPMI-8226 leukemia. Also, the TGI was > 92 µM in the assay on TK-10 renal, > 100 µM with DU-145 prostate, 58.7 µM with SK-MEL-2 melanoma and 1.19 µM with MDA-MB-231 breast.

Turning to `COc1cc(-c2c3c(cn2S(=O)(=O)c2ccccc2)-c2nc(N)sc2CC3)cc(OC)c1OC`, the GI50 was 11 µM in the assay with SNB-19 CNS; 0.579 µM in the assay on SK-MEL-5 melanoma; 0.591 µM in the assay on U251 CNS; 0.238 µM in the assay on MDA-MB-435; 0.987 µM in the assay on LOX IMVI melanoma; 0.79 µM in the assay on RPMI-8226 leukemia. Also, the GI50 in the assay on TK-10 renal is 5.2 µM; with DU-145 prostate, 1.54 µM; in the assay with SK-MEL-2 melanoma, 0.596 µM; with MDA-MB-231 breast, 1.1 µM. The TGI with SNB-19 CNS was > 100 µM; in the assay with SK-MEL-5 melanoma, 18.8 µM; in the assay with U251 CNS, 10.5 µM; in the assay on MDA-MB-435, 0.791 µM; in the assay on LOX IMVI melanoma, > 100 µM; in the assay with RPMI-8226 leukemia, 56 µM. Besides, the TGI came out at 30.1 µM with TK-10 renal, 41.9 µM with DU-145 prostate, 12.7 µM in the assay on SK-MEL-2 melanoma and 79.1 µM with MDA-MB-231 breast.
